# Test results: patent US20250186403A1 (ARIZONA BOARD OF REGENTS ON BEHALF OF THE UNIVERSITY OF …, priority 2022, published 2025)
# What was measured:
# [1] = molecular target: T1, recombinant Drosophila Hh protein (C-Hh-Y) (Drosophila melanogaster, UniProt Q02936); assay: Hh cholesterolysis assay; type: biochemical; details: CMN at up to 200 µM, 22 h
# T1 construct: His tag (inferred from 'purified similarly', i.e. Ni-NTA); made in house; host or cells: E. coli LMG194
# Protocol: The Tm values were calculated by Thermal shift software. […] The assay was repeated three times. […]
# The hedgehog FRET protein C-Hh-Y was expressed and purified similarly, except that the protein was expressed in E. coli strain LMG194, induced with arabinose at 16° C. overnight, and the purified protein was stored in a storage buffer containing 10% glycerol and 4 mM TCEP.
# Hh cholesterolysis assay: Cholesterolysis assay was done as per published methodology with modifications. […] With 50 μl reaction volume, a fixed volume of DMSO or CNM with varying concentrations (final 6.25 to 200 µM) were added and incubated at RT for 30 min. Cholesterolysis was induced by adding 1 μl stock solution of cholesterol in ethanol to each tube to attain a final concentration of 200 µM. After incubating at RT for 22 h, 20 μl of the reaction mixture was mixed with an equal volume of reducing SDS-PAGE loading buffer and loaded onto the 12% SDS-PAGE gel, followed by coomassie blue staining. Gel images were taken using the ChemiDoc imaging system (Bio-Rad). Band densities were analyzed using the Image lab software and compared with Student's t-test using the GraphPad Prism software version 9.1.0.
# A. fumigatus = assay: MIC by microdilution method (resazurin); type: cell-based; details: Aspergillus fumigatus
# Protocol: Serial double dilution of the CMN was done in the RPMI-MOPS medium. Freshly grown fungal culture from the SD agar plate was resuspended in sterile water and diluted to get 0.1 OD at 600 nm. […] The plates were incubated at 30° C. for 48 h. Plates were checked for growth by visual observation. For Afu, resazurin was added to 44 µM and incubated for 12 h at 37° C. before noting a change in color from blue to pink by live cells. MIC is defined as the minimum concentration at which there is no growth when observed visually.
# [2] = test system: Prp8 intein splicing in Cne-WT; assay: Western blot, in vivo Prp8 intein splicing in Cne; type: cell-based, Cryptococcus neoformans; details: Cne-WT incubated with CMN 18 h
# Protocol: TCEP is added to a final concentration of 100 µM and incubated for 24 h. The substrate Nano-Glo luciferase (Promega) was added, and the resulting luminescence was read. IC50 was calculated using GraphPad prism. […] TCEP was added to a concentration of 1 mM and incubated for 24 h. From this reaction mixture, 10 μl was mixed with an equal volume of 2×SDA-PAGE loading dye and loaded onto 12% SDS-PAGE gel without boiling the sample. The gel was scanned with UV using Chemidoc (Bio Rad), and band intensities were quantified using Image Lab software. […] Cells were harvested and washed in PBS, lysed with bead lyser, and centrifuged at 10,000 rpm. An equal quantity of protein (50 μg) from each treatment was loaded onto 12% SDS-PAGE and blotted onto the NC membrane, blocked with 5% skimmed milk. The membrane was probed with anti-prp8 intein rabbit polyclonal sera, followed by goat anti-rabbit HRP antibody. Signals were developed using a chemiluminescent kit. The density of the spliced intein bands (˜20 kDa) were quantified using Image lab software. A band at ˜130 kDa is uncharacterized, as explained below. NC: nitrocellulose. Abs: absorbance
# DMSO was used as a control. An equal volume of freshly grown Cne-WT culture (0.2 OD at 600 nm) was added to obtain the final absorbance of 0.1 OD. […] Intensities of bands were quantified by image lab software and compared with that of control.
# T1 sequence (Q02936 258-471): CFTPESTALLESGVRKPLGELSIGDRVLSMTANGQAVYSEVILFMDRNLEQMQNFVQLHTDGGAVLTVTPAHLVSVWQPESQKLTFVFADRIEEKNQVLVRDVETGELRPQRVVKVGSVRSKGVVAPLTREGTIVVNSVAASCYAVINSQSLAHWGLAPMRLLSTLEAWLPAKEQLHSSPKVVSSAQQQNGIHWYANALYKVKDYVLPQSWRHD
smiles,measurement,setting,value
"CNc1ccc2oc(C[C@H]3O[C@@]4(CC[C@H]3C)O[C@H]([C@H](C)C(=O)c3ccc[nH]3)[C@H](C)C[C@H]4C)nc2c1C(=O)O [CMN, calcimycin]","density of spliced product, hedgehog cholesterolysis",[1],did not change the density of spliced product
same,MIC,A. fumigatus,> 50 µM
same,spliced intein (approximately 20 kDa) in western blot,[2],dose-dependent reduction in spliced intein
